The results in this text go back to patent US9028845B2, “Chimeric immunomodulatory compounds and methods of using the same-IV” (Dynavax Technologies Corporation, priority 2001, dated 2015).

In the series the test system is human PBMCs. The series can be described thus: Human PBMC cytokine response assay (IFN-γ and IFN-α in cell-free medium by ELISA), with or without cPLGA.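 On IFN-α (pg/ml) mean: 20 µg/mL compound for 24 hours.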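 On IFN-γ (pg/ml) mean: 20 µg/mL compound for 24 hours.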 The series is classed as cell-based. To be noted: for IFN-α induction, in words: used alone; for immunomodulatory activity (IFN-γ / IFN-α secretion), in words: used alone (no cPLGA). For orientation: ELISA stands for enzyme-linked immunosorbent assay.

Where [1] appears, read: mean of donors 28218-28221, 20 μg/ml, 24 h.
[2] abbreviates: mean of donors 110, 112, 119, 120, Table 14.
Setting [3] is: mean of donors 28057-28060, Table 16.
[4] abbreviates: mean of donors 28185-28188, Table 15.
The mark [5] stands for this setting: Table 25, mean of donors 28250-28253.
The mark [6] stands for this setting: donor 28066, 20 ug/ml, 24 h, + PLGA = premixed with 100 μg/ml cPLGA.
Where [7] appears, read: donor 28067, 20 ug/ml, 24 h, + PLGA = premixed with 100 μg/ml cPLGA.
The mark [8] stands for this setting: donor 28068, 20 ug/ml, 24 h, + PLGA = premixed with 100 μg/ml cPLGA.
Setting [9] is: mean of Donors 3-4, 20 μg/ml, 24 h.
Setting [10] is: mean of donors 28065-28068, 20 ug/ml, 24 h, + PLGA = premixed with 100 μg/ml cPLGA.

On to “(5′-TCGAACGTTCGA-3′ (SEQ ID NO: 155)-HEG)2-glycerol-HEG-5′-TCGAACGTTCGA-3′ (SEQ ID NO: 155) (three copies via HEG-glycerol branching, chemistry not fully specified) [Compound C-173]”, for which the IFN-α is, setting by setting: (Example 58, 0.8 ug/ml, donor 1) 272 pg/mL; (Example 58, 0.8 ug/ml, donor 2) 1293 pg/mL; (Example 58, 0.8 ug/ml, donor 3) 1138 pg/mL; (Example 58, 0.8 ug/ml, donor 4) 2547 pg/mL; (Example 58, 4 ug/ml, donor 1) 3828 pg/mL; (Example 58, 4 ug/ml, donor 2) 2917 pg/mL. The IFN-α turned out to be 2197 pg/mL (Example 58, 4 ug/ml, donor 3); 3563 pg/mL (Example 58, 4 ug/ml, donor 4); 14381 pg/mL (Example 58, 20 ug/ml, donor 1); 8060 pg/mL (Example 58, 20 ug/ml, donor 2); 66 pg/mL (Example 58, 20 ug/ml, donor 3); 299 pg/mL (Example 58, 20 ug/ml, donor 4). Besides, the IFN-α mean is 1312 pg/mL (Example 58, 0.8 ug/ml, mean of four individuals); 3126 pg/mL (Example 58, 4 ug/ml, mean of four individuals); 5701 pg/mL (Example 58, 20 ug/ml, mean of four individuals). Besides, under “low doses (e.g., 0.8 ug/ml), four individuals”, the “IFN-α from human PBMC compared with parent oligonucleotide P-17, in words” value is “induce significantly more IFN-α”.

For “5′-GsGsGsGs-3′-C3-5′-ATCGAT-3′-C3-5′-TGATGCATCA-3′-C3-5′-ATCGAT-3′-C3-5′-GsGsGsGsGsG-3′ (s = phosphorothioate linkages, otherwise linkages are phosphodiester) (TGATGCATCA is SEQ ID NO: 105) (listed as DNA, chemistry not fully specified) [Compound C-87]”, the “IFN-α induction, in words” value is “remarkable induction of IFN-α”. Where the note is “donor 28218, 20 μg/ml, 24 h”, the “IFN-a (pg/ml) 28218” value stood at 3075 pg/mL and the “IFN-g (pg/ml) 28218” value amounted to 83 pg/mL. Moreover, for the setting “donor 28219, 20 μg/ml, 24 h”, the “IFN-a (pg/ml) 28219” value came to 32 pg/mL and the “IFN-g (pg/ml) 28219” value worked out at 24 pg/mL. Under “donor 28220, 20 μg/ml, 24 h”, the “IFN-a (pg/ml) 28220” value worked out at 4269 pg/mL and the “IFN-g (pg/ml) 28220” value came to 38 pg/mL. Further, under “donor 28221, 20 μg/ml, 24 h”, the “IFN-a (pg/ml) 28221” value is 265 pg/mL and the “IFN-g (pg/ml) 28221” value worked out at 977 pg/mL. Also, under setting [1], the “IFN-a (pg/ml) mean” value stood at 1910 pg/mL and the “IFN-g (pg/ml) mean” value was found to be 281 pg/mL.

Regarding “5′-TTCGTTT-3′-HEG-5′-TTCGTTT-3′-HEG-5′-TTCGTTT-3′ [Compound C-46]”, the “immunomodulatory activity (IFN-γ / IFN-α secretion), in words” value was “more active than other CG-containing CICs”. Besides, where the note is “Table 10, donor 28042”, the IFN-α came out at 24 pg/mL and the IFN-γ amounted to 399 pg/mL. In addition, for the setting “Table 10, donor 28043”, the IFN-α came to 73 pg/mL and the IFN-γ amounted to 814 pg/mL. Under “Table 10, donor 28044”, this substance yielded an IFN-α of 26 pg/mL and an IFN-γ of 480 pg/mL. For the setting “Table 10, donor 28045”, the IFN-α is 3 pg/mL and the IFN-γ was 63 pg/mL. For the setting “Table 10, mean of donors”, this substance gave an IFN-α mean of 31 pg/mL and an IFN-γ mean of 439 pg/mL. In addition, for the setting “donor 110, Table 14”, the “IFN-α” value is 58 pg/mL and the “IFN-γ” value is 1224 pg/mL. Further, under “donor 112, Table 14”, the “IFN-α” value came to 2 pg/mL and the “IFN-γ” value is 400 pg/mL. Further, under “donor 119, Table 14”, the “IFN-α” value was found to be 208 pg/mL and the “IFN-γ” value is 68 pg/mL. Where the note is “donor 120, Table 14”, the “IFN-α” value was 48 pg/mL and the “IFN-γ” value stood at 36 pg/mL. Also, under setting [2], the “IFN-α (pg/ml) mean” value is 79 pg/mL and the “IFN-γ (pg/ml) mean” value was 432 pg/mL.

With “5′-GsGs-3′-C3-5′-TGC-3′-C3-5′-ATCGAT-3′-C3-5′-GCA-3′-C3-5′-GGsGsGsGsG-3′ (s = phosphorothioate linkages, otherwise linkages are phosphodiester) [Compound C-84]”, the IFN-α was found to be 0 pg/mL (Table 11, donor 28042); 0 pg/mL (Table 11, donor 28043); 5 pg/mL (Table 11, donor 28044); 222 pg/mL (Table 11, donor 28045). The IFN-γ runs as follows: (Table 11, donor 28042) 29 pg/mL; (Table 11, donor 28043) 23 pg/mL; (Table 11, donor 28044) 69 pg/mL; (Table 11, donor 28045) 232 pg/mL. Where the note is “Table 11, mean of donors”, this substance registered an IFN-α mean of 57 pg/mL. The IFN-γ mean (Table 11, mean of donors) came to 88 pg/mL.

Regarding “5′-TCGTCG-3′-(HEG)4-5′-T-3′ [Compound C-16]”, the “immunomodulatory activity (IFN-γ / IFN-α secretion), in words” value is reported as “None of the CICs was active when used alone”. For the same substance, where the note is “donor 28057, Table 16”, the “IFN-α” value came to 0 pg/mL and the “IFN-γ” value is 1 pg/mL. Where the note is “donor 28058, Table 16”, the “IFN-α” value turned out to be 0 pg/mL and the “IFN-γ” value was found to be 2 pg/mL. Where the note is “donor 28059, Table 16”, the “IFN-α” value came out at 0 pg/mL and the “IFN-γ” value came to 0 pg/mL. Also, for the setting “donor 28060, Table 16”, the “IFN-α” value worked out at 0 pg/mL and the “IFN-γ” value turned out to be 6 pg/mL. Besides, for the setting “formulated with cPLGA”, the “activity when formulated with cPLGA, in words” value is reported as “all had significant activity when formulated on cPLGA”. For the same substance, under setting [3], the “IFN-α (pg/ml) mean” value was found to be 0 pg/mL and the “IFN-γ (pg/ml) mean” value is 2 pg/mL.

As to “Starburst Dendrimer ® -(5′-TGACTGTGAACGTTCGAGATGA-3′)x (X range = 3-16) (SEQ ID NO: 2) (See Ex. 24) [Compound C-102]”, the “IFN-α induction, in words” value is “significantly more IFN-α activity than the P-6 sequence alone”. Besides, under “donor 28185, Table 15”, the “IFN-a” value worked out at 1880 pg/mL and the “IFN-g” value was found to be 158 pg/mL. Where the note is “donor 28186, Table 15”, the “IFN-a” value was found to be 187 pg/mL and the “IFN-g” value worked out at 43 pg/mL. Further, under “donor 28187, Table 15”, the “IFN-a” value was 109 pg/mL and the “IFN-g” value was 101 pg/mL. For the setting “donor 28188, Table 15”, the “IFN-a” value stood at 4 pg/mL and the “IFN-g” value came to 6 pg/mL. Also, under setting [4], the “IFN-a (pg/ml) mean” value was determined as 545 pg/mL and the “IFN-g (pg/ml) mean” value came to 77 pg/mL. Moreover, the “IFN-a (pg/ml) ×2” value (mean ×2, Table 15) stood at 1090 pg/mL. Further, the “IFN-g (pg/ml) ×4” value (mean ×4, Table 15) is 307 pg/mL.

“5′-TCGTCGA-3′-HEG-5′-AACGTTC-3′-HEG-5′-AGATGAT-3′ [Compound C-54]”: the IFN-α runs as follows: (Table 13, donor 28156) 8 pg/mL; (Table 13, donor 28157) 96 pg/mL; (Table 13, donor 28158) 8 pg/mL; (Table 13, donor 28159) 13 pg/mL. For the same substance, the IFN-γ amounted to 297 pg/mL (Table 13, donor 28156); 378 pg/mL (Table 13, donor 28157); 88 pg/mL (Table 13, donor 28158); 218 pg/mL (Table 13, donor 28159). Besides, the IFN-α mean (Table 13, mean of donors) turned out to be 31 pg/mL. For the same substance, the IFN-γ mean (Table 13, mean of donors) worked out at 245 pg/mL.

For “5′-TCGTCGT-3′-HEG-5′-TGTCGTT-3′-HEG-5′-TGTCGTT-3′ [Compound C-47]”, the IFN-α was 20 pg/mL (Table 10, donor 28042); 0 pg/mL (Table 10, donor 28043); 0 pg/mL (Table 10, donor 28044); 0 pg/mL (Table 10, donor 28045). Besides, the IFN-γ was found to be 112 pg/mL (Table 10, donor 28042); 537 pg/mL (Table 10, donor 28043); 142 pg/mL (Table 10, donor 28044); 17 pg/mL (Table 10, donor 28045). Moreover, the IFN-α mean (Table 10, mean of donors) was 5 pg/mL. Further, under “Table 10, mean of donors”, the IFN-γ mean stood at 202 pg/mL.

Consider “5′-AGATGAT-3′ [Compound P-4, reference compound]”, for which the “immunomodulatory activity (IFN-γ / IFN-α secretion), in words” value was “did not have immunomodulatory activity”. Under “Donor 3, 20 μg/ml, 24 h”, the “IFN-α (pg/ml) Donor 3” value stood at 0 pg/mL and the “IFN-γ (pg/ml) Donor 3” value stood at 0 pg/mL. Also, where the note is “Donor 4, 20 μg/ml, 24 h”, the “IFN-α (pg/ml) Donor 4” value is 58 pg/mL and the “IFN-γ (pg/ml) Donor 4” value came out at 3 pg/mL. Also, the IFN-a (Table 25, donor 28250) was found to be 16 pg/mL. Under “Table 25, donor 28250, polynucleotides/spacers at amounts equivalent to the CIC, spacers alone 9 uM”, the IFN-g came to 72 pg/mL. For the setting “Table 25, donor 28251”, this substance gave an IFN-a of 16 pg/mL and an IFN-g of 1 pg/mL. For the same substance, where the note is “Table 25, donor 28252”, the IFN-a came to 16 pg/mL and the IFN-g was found to be 43 pg/mL. Besides, for the setting “Table 25, donor 28253”, the IFN-a amounted to 16 pg/mL and the IFN-g was found to be 1 pg/mL. Under setting [5], this substance showed an IFN-a mean of 16 pg/mL and an IFN-g mean of 29 pg/mL. Also, the “IFN-γ (pg/ml) 28065” value (donor 28065 (high background), 20 ug/ml, 24 h, + PLGA = premixed with 100 μg/ml cPLGA, 1000 = outside assay limits) is 93 pg/mL. Moreover, the “IFN-α (pg/ml) 28065” value (donor 28065, 20 ug/ml, 24 h, + PLGA = premixed with 100 μg/ml cPLGA) was 0 pg/mL. In addition, under setting [6], the “IFN-α (pg/ml) 28066” value amounted to 0 pg/mL and the “IFN-γ (pg/ml) 28066” value came out at 1 pg/mL. For the same substance, under setting [7], the “IFN-α (pg/ml) 28067” value was found to be 9 pg/mL and the “IFN-γ (pg/ml) 28067” value stood at 1 pg/mL. Under setting [8], the “IFN-α (pg/ml) 28068” value came out at 0 pg/mL and the “IFN-γ (pg/ml) 28068” value came to 1 pg/mL. Under setting [9], the “IFN-α (pg/ml) mean” value came out at 29 pg/mL and the “IFN-γ (pg/ml) mean” value turned out to be 1 pg/mL. Under setting [10], the “IFN-α (pg/ml) mean” value came out at 2 pg/mL and the “IFN-γ (pg/ml) mean” value amounted to 24 pg/mL.
